In patent publication US8044071B2, “Method for reducing side effects of CB2 receptor agonist therapy using a combination of a selective CB2 receptor agonist and a selective CB1 receptor antagonist” (Abbott Laboratories, priority 2007, dated 2011):

Key:
Assay type in all cases: in vivo
[1] = test system: skin incision model of postoperative pain; assay: Skin incision model of postoperative pain (tactile allodynia, von Frey); conditions: rat; for analgesia (tactile allodynia), agonist after rimonabant: 30 μmol/kg i.p. given 15 min after rimonabant 30 μmol/kg i.p.; for withdrawal threshold for the incisional paw (allodynia): 10 and 30 μmol/kg i.p., two hours after surgery
Excerpt: Adult male Sprague-Dawley rats (250-300 g body weight, Charles River Laboratories, Portage, Mich.) were used. Animal handling and experimental protocols were approved by the Institutional Animal Care and Use Committee (IACUC) at Abbott Laboratories. For all surgical procedures, animals were maintained under halothane anesthesia (4% to induce, 2% to maintain), and the incision sites were sterilized using a 10% povidone-iodine solution prior to and after surgeries.
A skin incision model of postoperative pain was produced using the procedures described in Brennan et al., 1996, Pain, 64, 493. All rats were anesthetized with isoflurane delivered via a nose cone. Right hind paw incision was performed following sterilization procedures. The plantar aspect of the […] hind paw was placed through a hole in a sterile plastic drape. A 1-cm longitudinal incision was made through the skin and fascia of the plantar aspect of the hind paw, starting 0.5 cm from the proximal edge of the heel and extending towards the toes, the plantar muscle was elevated and incised longitudinally leaving the muscle origin and insertion points intact. The skin was then closed with two mattress sutures (5-0 nylon). After surgery, animals were then allowed to recover for 2 hours, at which time tactile allodynia was assessed as described below. To evaluate the anti-nociceptive effects, animals were i.p. administered vehicle or test compound 90 minutes following skin incision and tactile allodynia was typically assessed 30 minutes after compound administration.
Tactile allodynia was measured using calibrated von Frey filaments (Stoelting, Wood Dale, Ill.) as described in Chaplan, S. R., F. W. Bach, J. W. Porgrel, J. M. Chung and T. L. Yaksh, 1994, Quantitative assessment of tactile allodynia in the rat paw, J. Neurosci. Methods, 53, 55. Rats were placed into inverted individual plastic cage (20×12.5×20 cm) on top of a suspended wire mesh grid, and acclimated to the test chambers for 20 minutes. The von Frey filaments were applied perpendicularly from underneath the cage through openings in the wire mesh floor directly to an area within 1-3 mm (immediately adjacent) of the incision, and then held in this position for approximately 8 seconds with enough force to cause a slight bend in the filament. Positive responses included an abrupt withdrawal of the hind paw from the stimulus, or flinching behavior immediately following removal of the stimulus. A 50% withdrawal threshold was determined using an up-down procedure as described in Dixon, W. J., 1980, Efficient analysis of experimental observations, Ann. Rev. Pharmacol. Toxicol., 20, 441. The effect on paw withdrawal latency of test compounds compared to vehicle control represents the ability of the test compound to reduce allodynia. An increase in the paw withdrawal latency represents an anti-allodynic effect (i.e., a decrease in pain).
Using the skin incisional model of postoperative pain, the effects of compound A, CB2 agonist (Z)—N-(5-tert-butyl-3-butylthiazol-2(3H)-ylidene)-5-chloro-2-methoxybenzamide, on allodynia was assessed two hours after surgery.
Using the skin incisional model of postoperative pain, the effects of CB2 agonist A were evaluated after the administration of vehicle or the CB1 antagonist rimonabant. This effect was compared with the administration of vehicle after the administration of vehicle or the CB1 antagonist rimonabant. A first dose, consisting of CB1 antagonist rimonabant (30 μmol/kg i.p.) or a vehicle (5% DMSO/PEG), was administered 15 minutes before a second dose, consisting of administration of CB2 agonist A (30 μmol/kg i.p.) or vehicle. Allodynia testing was conducted 30 minutes after administration of the second dose, either CB2 agonist A or vehicle.

[2] = test system: hind limb grip force; assay: Grip force behavior (hind limb); conditions: rat, 30 μmol/kg i.p.
Procedure: Adverse effects can be assessed by measurements of Grip Force (GF) Behavior. Measurements of hind limb grip force are conducted by recording the maximum compressive force exerted on the hind limb strain gauge setup, in a commercially available grip force measurement system (Columbus Instruments, Columbus, Ohio). During testing, animals are gently restrained by grasping around its rib cage and then allowed to grasp the wire mesh frame (10×12 cm^2) attached to the strain gauge. The experimenter then moves the animal in a rostral-to-caudal direction until the grip is broken. Each animal is sequentially tested twice at approximately 2-3 min interval to obtain a raw mean grip force (CFmax). This raw mean grip force data is in turn converted to a maximum hindlimb compressive force (CFmax) (gram force)/kg body weight for each animal. A group mean±S.E.M. for CFmax/kg body weight is calculated. A group of age-matched naïve animals are added to each experiment and the data obtained from the different dose groups for each compound—or compound combination—being tested are compared to the naïve group (assigned as being 100% normal). […]
Using the grip force behavior assay, the effects of CB2 agonist B were evaluated after the administration of vehicle or the CB1 antagonist rimonabant. […]

[3] = test system: mean arterial pressure; assay: Mean arterial pressure in anesthetized rats; conditions: anesthetized rat
Procedure: Male Sprague-Dawley rats were anesthetized with the long acting barbiturate, Inactin. Catheters were placed in the femoral artery for measurement of MAP and HR. Additional catheters were placed in the femoral vein for compound administration and saline infusion to maintain hydration. Following a 30-minute control period, vehicle (PEG400), compound B (vehicle: PEG400; 2 ml/kg) or CB2 agonist B (vehicle: PEG400; 2 ml/kg) plus CB1 antagonist rimonabant (vehicle: PEG400; 1 ml/kg) was administered intravenously over a 30-minute infusion. When administered simultaneously, compound B and rimonabant were infused individually using separate syringes. The doses tested were 1.0 mg/kg for compound B and 3.2 mg/kg for rimonabant. Data is expressed as mean from 3 rats ±sem. […] These effects indicate that the reduction in blood pressure by CB2 agonist B results from its residual activation of the CB1 receptor.

[4] = tested 30 min after second dose

Row | Structure (SMILES) | analgesia (tactile allodynia), agonist after rimonabant [1, 4] | analgesia (tactile allodynia), agonist after rimonabant ([1]; tested 30 min after second dose, listed as CB2 agonist A) | analgesia (tactile allodynia), agonist after vehicle ([1]; 30 μmol/kg i.p. given 15 min after vehicle, tested 30 min after second dose) | withdrawal threshold for the incisional paw (allodynia) [1] | reduction of grip force, agonist after rimonabant ([2]; rimonabant 30 μmol/kg i.p. 15 min before) | reduction of grip force, agonist after vehicle [2, 4] [%] | effect on mean arterial pressure (MAP), agonist with rimonabant ([3]; 1.0 mg/kg i.v. plus rimonabant 3.2 mg/kg i.v., 30-minute infusion) | effect on mean arterial pressure (MAP), agonist alone ([3]; 1.0 mg/kg intravenously over 30-minute infusion)
1 | CCCCn1cc(C(C)(C)C)s/c1=N\C(=O)c1cc(Cl)ccc1OC [compound A, (Z)—N-(5-tert-butyl-3-butylthiazol-2(3H)-ylidene)-5-chloro-2-methoxybenzamide] | equivalent efficacy | able to induce analgesia | able to induce analgesia | recovered |  |  |  | 
2 | COCCn1c(C)c(C)s/c1=N\C(=O)C1C(C)(C)C1(C)C [compound B, (Z)—N-(3-(2-methoxyethyl)-4,5-dimethylthiazol-2(3H)-ylidene)-2,2,3,3-tetramethylcyclopropanecarboxamide] |  |  |  | re-establishing withdrawal threshold | completely blocked | 42 | devoid of an effect on blood pressure relative to vehicle | has an effect to reduce blood pressure
